Results taken from patent US9422267B2, “Fused pyrimidine compounds and use thereof” (Medivation Technologies, Inc., priority 2012, dated 2016).
Several values for one entry are separate records, joined by “and”; a condition that tells them apart may be missing. Identical values can stand only once. Like-named read-outs stand apart in the source and are kept apart here.

Key:
HCT-15 = test: Cell Titer-Glo cell viability: HCT-15; format: cell-based; conditions: Homo sapiens, HCT-15, 72 h, HCT15, colon carcinoma
Description: (§1) This assay quantitates the ATP present in order to determine the number of viable cells in culture. Briefly, the compounds were incubated with the cells for 72 h, followed by cell lysis. The resulting luminescent signal is proportional to the amount of ATP present and, therefore, directly proportional to the number of cells present in culture.
(§2) Compound nos. […] These cell lines are derived from human lung carcinoma, colon adenocarcinoma, colon adenocarcinoma, colon carcinoma, acute promyelocytic leukemia, colon adenocarcinoma, colon adenocarcinoma (from metastatic site lymph node), respectively.
(§3) Compounds 2b, 5, 6b and 10a were tested along with derivatives in viability assays as described above by Caliper LifeSciences Systems (Hanover, Md.), in A549, HCT-15, HCT-116, MCF-7, MDA-MB-231, OVCAR3, T47D, COLO205, HT-29, BT-20, HCC1187, HL-60, MDA-MB-175, SW-620, and UACC812 cells.

MCF-7 = test: Cell Titer-Glo cell viability: MCF-7; format: cell-based; conditions: Homo sapiens, MCF7, breast cancer
Description: (§4) Compound nos. […] This panel of cell lines includes an ER− breast carcinoma, primary breast ductal carcinoma, prostate adenocarcinoma, mammary adenocarcinoma, mammary ductal carcinoma, mammary ductal carcinoma, ovary adenocarcinoma, ER+ breast carcinoma, ER-HER2+ mammary ductal carcinoma and an ER+ mammary ductal carcinoma, respectively.
as §1, §3

COLO 205 = test: Cell Titer-Glo cell viability: COLO 205; format: cell-based; conditions: Homo sapiens, COLO 205, 72 h
Description: as §1, §2, §3

AXL = target: T1, AXL (Homo sapiens, UniProt P30530); test: Caliper kinase profiling: AXL; conditions: for inhibition of AXL in panel of 11 kinases: 0.01 μM; for inhibition at 0.01 µM: read-out: Average % Inh @ 10 nM
T1 sequence (P30530 26-894): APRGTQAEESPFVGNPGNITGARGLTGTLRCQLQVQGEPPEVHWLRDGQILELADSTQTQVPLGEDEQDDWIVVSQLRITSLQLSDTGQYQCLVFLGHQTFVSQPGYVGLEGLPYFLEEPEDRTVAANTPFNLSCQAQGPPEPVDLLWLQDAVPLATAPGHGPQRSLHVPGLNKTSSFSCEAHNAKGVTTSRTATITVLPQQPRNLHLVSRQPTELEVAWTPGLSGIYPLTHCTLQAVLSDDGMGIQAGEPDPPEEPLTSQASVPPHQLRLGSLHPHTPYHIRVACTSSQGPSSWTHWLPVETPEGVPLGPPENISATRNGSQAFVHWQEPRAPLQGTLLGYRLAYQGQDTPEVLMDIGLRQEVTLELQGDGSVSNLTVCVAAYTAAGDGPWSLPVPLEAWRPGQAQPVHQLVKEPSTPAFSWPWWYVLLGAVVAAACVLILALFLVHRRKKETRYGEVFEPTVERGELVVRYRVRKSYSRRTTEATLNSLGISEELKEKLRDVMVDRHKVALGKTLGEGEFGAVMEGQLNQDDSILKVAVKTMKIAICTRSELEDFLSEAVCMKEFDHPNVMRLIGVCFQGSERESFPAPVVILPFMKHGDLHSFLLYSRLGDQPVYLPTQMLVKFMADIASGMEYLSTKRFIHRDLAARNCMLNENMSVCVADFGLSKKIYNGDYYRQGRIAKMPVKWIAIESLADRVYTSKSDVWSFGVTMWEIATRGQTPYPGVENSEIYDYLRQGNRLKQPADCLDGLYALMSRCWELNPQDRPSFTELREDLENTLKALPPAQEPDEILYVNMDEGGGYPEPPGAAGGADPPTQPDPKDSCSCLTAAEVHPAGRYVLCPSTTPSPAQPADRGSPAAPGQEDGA
Description: (§5) The compound was tested at concentrations of 1.0×10^−8 and 1.0×10^−9 M in the RapidKinase192™ panel in duplicate. […] The screening was performed using the Caliper EZReader2, a 4-sipper LabChip, and ProfilerPro Kinase Selectivity Assay Kits 1 and 2. The assay measures the conversion of a fluorescent peptide substrate to a phosphorylated product. Briefly, the reaction mixture was introduced through a capillary sipper onto the microfluidic chip, where the substrate and product were electrophoretically separated and detected by laser-induced fluorescence. The time-dependent fluorescence signal indicates the extent of the reaction.
(§6) The kinases tested were AurA, AurB, AurC, AXL, FAK2, IGF1R, InsR, Mer, MET, TrkB and TrkC.
(§7) The assays were conducted using the Caliper LabChip 3000 and a 12-sipper LabChip as described above.

SW-620 = test: Cell Titer-Glo cell viability: SW-620; format: cell-based; conditions: Homo sapiens, SW-620, 72 h, SW-620, metastatic colorectal cancer
Description: as §1, §2, §3

A549 = test: Cell Titer-Glo cell viability: A549; format: cell-based; conditions: Homo sapiens, A549, 72 h, A549, non-small lung carcinoma
Description: as §1, §2, §3

MDA MB 231 = test: Cell Titer-Glo cell viability: MDA MB 231; format: cell-based; conditions: Homo sapiens, MDAMB231, breast cancer
Description: as §4, §1, §3

IR = target: T2, IR (Homo sapiens, UniProt P06213); test: In vitro IR enzymatic assay (ADP-Glo kinase assay); format: biochemical
T2 construct: purchased Millipore 14-803
Description: IC50 values of the compounds of the invention against IGF-1R and IR were measured in vitro using an ADP-Glo kinase assay Kit (Promega). […] Kinase reactions in both assays were conducted at 30° C. for 20 min with increasing concentrations of compounds of the invention.

FAK2(PTK2b) = FAK2(PTK2b) (Homo sapiens, UniProt Q14289); test: Caliper kinase assay: FAK2(PTK2b); conditions: for inhibition of FAK2 in panel of 11 kinases: 0.01 μM
Description: as §5, §6, §7

LNCaP = test: Cell Titer-Glo cell viability: LNCaP; format: cell-based; conditions: Homo sapiens
Description: as §4, §1

UACC 812 = test: Cell Titer-Glo cell viability: UACC 812; format: cell-based; conditions: Homo sapiens
Description: as §4, §1, §3
The inhibitory effects of Compound 8a were tested in two cell lines.

HCT-116 = test: Cell Titer-Glo cell viability: HCT-116; format: cell-based; conditions: Homo sapiens, HCT116, colon carcinoma
Description: as §1, §2, §3

[1] = test system: Akt phosphorylation induced by IGF-1R in HT-29 cells; test: Western blot analysis of Akt phosphorylation induced by IGF-1R; format: cell-based, Human; conditions: then IGF-1 10 ng/mL 10 min, HT-29
OVCAR-3 = test: Cell Titer-Glo cell viability: OVCAR-3; format: cell-based; conditions: Homo sapiens, OVCAR3, ovarian cancer
Description: as §4, §1, §3

[2] = 72 h incubation, Cell Titer-Glo
[3] = COLO205, colon cancer, 72 h incubation, Cell Titer-Glo
[4] = Prostate cancer, 72 h incubation, Cell Titer-Glo
[5] = UACC 812, breast cancer, 72 h incubation, Cell Titer-Glo
[6] = COLO-205, colon adenocarcinoma, 72 h

T2 sequence (P06213 28-1382): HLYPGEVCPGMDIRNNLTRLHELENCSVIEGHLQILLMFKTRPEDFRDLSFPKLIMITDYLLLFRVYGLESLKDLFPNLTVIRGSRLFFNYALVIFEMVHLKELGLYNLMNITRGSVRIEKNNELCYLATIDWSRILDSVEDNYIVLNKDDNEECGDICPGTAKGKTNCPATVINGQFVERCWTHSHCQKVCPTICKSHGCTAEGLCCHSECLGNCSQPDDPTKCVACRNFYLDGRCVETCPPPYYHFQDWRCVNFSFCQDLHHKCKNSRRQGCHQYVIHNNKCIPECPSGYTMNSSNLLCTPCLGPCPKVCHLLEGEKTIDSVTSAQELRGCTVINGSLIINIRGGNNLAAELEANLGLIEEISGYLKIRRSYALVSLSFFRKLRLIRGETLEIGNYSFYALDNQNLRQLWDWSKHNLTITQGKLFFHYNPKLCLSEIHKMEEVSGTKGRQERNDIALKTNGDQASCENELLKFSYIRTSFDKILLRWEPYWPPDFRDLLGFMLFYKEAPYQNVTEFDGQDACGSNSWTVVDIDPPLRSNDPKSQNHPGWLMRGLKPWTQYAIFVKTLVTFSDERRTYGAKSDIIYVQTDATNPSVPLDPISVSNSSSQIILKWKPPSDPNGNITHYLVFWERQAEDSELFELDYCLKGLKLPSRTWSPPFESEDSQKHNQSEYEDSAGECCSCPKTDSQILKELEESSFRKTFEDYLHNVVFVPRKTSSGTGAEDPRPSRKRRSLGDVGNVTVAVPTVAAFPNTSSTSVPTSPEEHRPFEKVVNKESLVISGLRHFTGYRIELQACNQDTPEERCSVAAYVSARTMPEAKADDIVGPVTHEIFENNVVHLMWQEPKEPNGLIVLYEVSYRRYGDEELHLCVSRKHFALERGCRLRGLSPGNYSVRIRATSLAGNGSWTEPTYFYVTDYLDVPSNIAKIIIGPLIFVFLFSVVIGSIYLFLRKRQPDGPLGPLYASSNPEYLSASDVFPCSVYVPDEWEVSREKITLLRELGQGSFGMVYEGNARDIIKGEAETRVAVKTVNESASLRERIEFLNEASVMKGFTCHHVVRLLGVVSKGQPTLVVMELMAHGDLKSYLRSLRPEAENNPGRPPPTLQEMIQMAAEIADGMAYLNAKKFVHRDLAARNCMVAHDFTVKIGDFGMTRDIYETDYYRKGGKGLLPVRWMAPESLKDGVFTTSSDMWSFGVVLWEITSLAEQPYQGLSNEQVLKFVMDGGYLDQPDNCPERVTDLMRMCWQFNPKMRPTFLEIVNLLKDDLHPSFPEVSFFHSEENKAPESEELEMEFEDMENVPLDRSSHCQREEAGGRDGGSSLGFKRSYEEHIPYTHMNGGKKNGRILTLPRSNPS
Chain of FAK2(PTK2b) (Q14289 whole entry): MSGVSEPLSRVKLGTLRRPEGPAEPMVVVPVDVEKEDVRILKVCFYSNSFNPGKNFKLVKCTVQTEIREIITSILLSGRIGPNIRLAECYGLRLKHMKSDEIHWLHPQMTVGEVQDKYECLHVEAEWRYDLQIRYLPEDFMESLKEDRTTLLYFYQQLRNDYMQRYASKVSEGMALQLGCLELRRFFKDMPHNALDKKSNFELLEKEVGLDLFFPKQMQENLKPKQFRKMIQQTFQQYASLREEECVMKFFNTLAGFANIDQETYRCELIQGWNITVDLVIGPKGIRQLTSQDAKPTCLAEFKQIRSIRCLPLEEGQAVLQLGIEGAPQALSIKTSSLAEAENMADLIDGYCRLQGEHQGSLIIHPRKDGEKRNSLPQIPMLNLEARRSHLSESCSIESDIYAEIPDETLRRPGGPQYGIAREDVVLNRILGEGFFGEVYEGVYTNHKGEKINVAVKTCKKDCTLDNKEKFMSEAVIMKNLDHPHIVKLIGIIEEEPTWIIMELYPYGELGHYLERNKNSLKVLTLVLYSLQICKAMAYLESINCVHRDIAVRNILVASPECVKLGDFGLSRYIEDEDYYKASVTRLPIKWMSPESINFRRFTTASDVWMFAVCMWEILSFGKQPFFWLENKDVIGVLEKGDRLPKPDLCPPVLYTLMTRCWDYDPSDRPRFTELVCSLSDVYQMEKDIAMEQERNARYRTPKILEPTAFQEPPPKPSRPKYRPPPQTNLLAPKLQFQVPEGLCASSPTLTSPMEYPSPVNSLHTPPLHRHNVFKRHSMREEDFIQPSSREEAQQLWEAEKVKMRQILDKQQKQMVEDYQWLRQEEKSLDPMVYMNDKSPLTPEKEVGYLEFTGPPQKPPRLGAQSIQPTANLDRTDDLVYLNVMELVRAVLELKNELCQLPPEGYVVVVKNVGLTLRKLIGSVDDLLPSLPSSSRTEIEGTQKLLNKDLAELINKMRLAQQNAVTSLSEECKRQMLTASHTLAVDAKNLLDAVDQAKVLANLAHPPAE

IC50 (HCT-15; [2]) [nM]	IC50 (MCF-7; [2]) [nM]	IC50 (COLO 205; [3]) [nM]	inhibition of AXL in panel of 11 kinases (AXL)	IC50 (SW-620; [2]) [nM]	IC50 (A549; [2]) [nM]	IC50 (IR; activated IR, read-out: IC50)	inhibition of FAK2 in panel of 11 kinases (FAK2(PTK2b))	IC50 (LNCaP; [4]) [nM]	IC50 (HCT-116; [2]) [nM]	IC50 (OVCAR-3; [2]) [nM]	IC50 (HCT-15; 72 h) [nM]	IC50 (COLO 205; [6]) [nM]	inhibition at 0.01 µM (AXL) [%]	IC50 (SW-620; 72 h) [nM]	SMILES	IC50 (MDA MB 231; [2]) [nM]	IC50 (UACC 812; [5]) [nM]	phosphorylated AKT levels normalized to actin levels (pAKT/actin) ([1]; 1 nM compound 2 h)	phosphorylated AKT levels normalized to actin levels (pAKT/actin) ([1]; 10 nM compound 2 h)	phosphorylated AKT levels normalized to actin levels (pAKT/actin) ([1]; 100 nM compound 2 h)	further results
1000	< 1000	< 100	strongly inhibited	< 1000	< 1000	4.13e-08 M	strongly inhibited	100	< 1000	< 100					O=C(Nc1cnccn1)C1CCCN1c1nc2c(c(Nc3cc(C4CC4)[nH]n3)n1)CCC2 (single isomer, unassigned) [Compound 6b]	< 1000	1000	0.18	0.00	0.00	phosphorylated AKT levels normalized to actin levels (pAKT/actin) ([1]; 0.1 nM compound 2 h): 0.87
1000	1000	< 100		< 1000	< 1000	5.7e-09 M		< 1000		< 1000	< 10000	< 10	40 to 59	100	O=C(Nc1ccc(F)nc1)C1CCCN1c1nc2c(c(Nc3cc(C4CC4)[nH]n3)n1)CCC2 (single isomer, unassigned) [Compound 2b, 1-(4-(5-cyclopropyl-1H-pyrazol-3-ylamino)-6,7-dihydro-5H-cyclopenta[d]pyrimidin-2-yl)-N-(6-fluoropyridin-3-yl)pyrrolidine-2-carboxamide]	1000	< 10000	0.80	0.22	0.03	inhibition at 0.1 µM (AXL; read-out: Average % Inh @ 100 nM): > 60%; inhibition at 1 µM (AXL; read-out: Average % Inh @ 1 μM): > 60%; IC50 (A549; 72 h): 1000 nM; Hill Slope N1 (IR; IR, ATP 50 μM, run N1): 1.34; IC50 (IR; IR, ATP 50 μM, run N1, read-out: IC50 (M) N1): 5.51e-09 M; Hill Slope N2 (IR; IR, ATP 50 μM, run N2): 1.13; IC50 (IR; IR, ATP 50 μM, run N2, read-out: IC50 (M) N2): 4.07e-09 M
< 10000	< 1000	100	strongly inhibited	< 1000	< 1000	8.3e-09 M and 1.2e-08 M	strongly inhibited	100	< 10000	< 1000					O=C(Nc1ccc(F)nc1)C1CCN1c1nc2c(c(Nc3cc(C4CC4)[nH]n3)n1)CCC2 (racemic) [Compound 5, 1-(4-(5-cyclopropyl-1H-pyrazol-3-ylamino)-6,7-dihydro-5H-cyclopenta[d]pyrimidin-2-yl)-N-(6-fluoropyridin-3-yl)azetidine-2-carboxamide]	< 10000	< 100000	0.61	0.04	0.00	inhibition at 0.03 µM (IR; activated IR, 30 nM, average, read-out: % Inh @ 30 nM Avg): 76%
											< 10000	< 10	40 to 59	1000	CC(C)c1cc(Nc2nc(N3CCCC3C(=O)Nc3ccc(F)nc3)nc3c2CCC3)n[nH]1 (single isomer, unassigned) [Compound 8b]			0.31	0.04	0.02	IC50 (MCF-7; 72 h): < 10000 nM; IC50 (AXL): 9.76 nM; inhibition at 0.001 µM (AXL; read-out: Average % Inh @ 1 nM): < 39%; IC50 (A549; 72 h): < 10000 nM; IC50 (MDA MB 231; 72 h): 10000 nM; IC50 (FAK2(PTK2b)): 2.36 nM; IC50 (LNCaP; prostate cancer, 72 h): < 10000 nM; IC50 (UACC 812; UACC-812, UACC812, breast cancer, 72 h): < 10000 nM; IC50 (HCT-116; 72 h): 1000 nM; IC50 (OVCAR-3; 72 h): 1000 nM
